Read-outs that look alike come from different tables or passages of the source.
What was measured:
[1] = tested on: HCV genotype 1a replicon cells Htat2ANeo; assay: 1a Replicon Assay (cell-based anti-NS5a ELISA); settings: Hepatitis C virus, 72 h
Protocol: HCV genotype la replicon cells Htat2ANeo (University of Texas), containing neomycin phosphotransferase fusion protein and EMCV-IRES driven HCV polyprotein with cell culture adaptive mutations, and control cells, Et2AN.
Cells were cultured at 37° C./5% CO2 and split twice a week. G418 at 0.5 mg/ml and Blastocidin at 2 mg/ml were added to the culture medium but not the assay medium.
The culture medium consisted of DMEM with […] glucose and Glutamax (Gibco 61965-026) supplemented with 1× non-essential amino acids (Invitrogen 11140-035), 0.5 mg/ml G418 (Invitrogen 10131-027), 2 mg/ml Blastocidin (PAA) and 10% is Australian foetal calf serum (Invitrogen 10099-141).
Replicon and control cells were trypsinised and counted. Replicon cells were diluted to 90,000 cells/ml and 100 μl of this used to seed columns 2-4, […] and 10-12 of a black, clear bottom 96-well plate for every three compounds to be tested for IC50. Control cells were diluted to 60,000 cells/ml and 100 μl of this used to seed columns 1, 5 and 9 of the plate. Well H1 was left empty as the blank. Plates were then incubated at 37° C./5% CO2 for 24 h.
On the following day compound dilutions were prepared in medium at twice their desired final concentration in a clear round bottomed plate.
Controls and compounds were transferred from the dilution plate to the assay plates (containing the cells) at 100 μl/well in quadruplicate wells, one well containing control cells and 3 wells containing replicon cells.
Exception: no compound was added to row H of the plate and 100 μl of 1% DMSO was added to these instead. Plates were then incubated at 37° C. with 5% CO2 for 72 h. At the end of the incubation time, any reduction in cell viability was assayed and a cell-based enzyme linked immunosorbent assay (ELISA) was performed. The media/compound was removed from all wells and replaced with 100 μl/well serum-free media and 20 μl/well Cell Titre Blue (Promega G8081). Following incubation at 37° C./5% CO2 for 2 h plates were read on a microplate fluorometer (Molecular Devices) using an excitation of 570 nm and an emission of 590 nm The TD50, the concentration of drug required to reduce 50% of Cell Titre Blue relative to the DMSO controls, was calculated by plotting the fluorescence at 590 nm after substraction of background against drug concentration.
The media/Cell Titre Blue was removed and plates washed in PBS and gently tapped dry before addition of 50 μL per well of 75% acetone/25% methanol mixture for 3 minutes. The fixative was then discarded and wells were washed with PBS before addition of 100 μl/well of blocking solution (2% non-fat dry milk and 0.05% Tween-20 in 0.85% NaCl). Plates were then incubated at 37° C. in a shaking incubator for 60 min. Blocking solution was discarded and 50 μl of mouse anti-NS5a antibody (Virostat 1877) at 1:100 dilution in blocking buffer was added to all wells. Plates were incubated at 37° C. in a shaking incubator for 90 min Antibody was then discarded and plates were washed 4 times by immersion in 0.85% NaCl/0.05% Tween-20. After washing plates were tapped dry gently and 50 μl of secondary antibody (Dako P0260 Rabbit anti-mouse horseradish peroxidase) at 1:1000 dilution in blocking buffer was added to the wells. Plates were incubated at 37° C. in a shaking incubator for 60 min. Antibody was discarded and plates were washed 6 times by immersion in 0.85% NaCl/0.05% Tween-20 and once in PBS. Finally, 50 μl of substrate (SigmaFast ortho-phenylene diamine dihydrochloride (OPD)) was added per well and the colorimetric reaction was allowed to proceed in the dark for 5 to 15 minutes depending on the strength or the signal. The reaction was stopped by addition of 25 μl/well of 20% sulphuric acid. Plates were read on the SpectraMax microplate reader at 490 nm fixed wavelength. […]

[2] = tested on: HCV replicon cells Huh 9B; assay type: cell-based; settings: Huh 9B replicon cells, 72 h, methylene blue, total cell area reduced by 50%
Protocol: (§1) HCV replicon cells Huh 9B (ReBlikon), containing the firefly luciferase-ubiquitin-neomycin phosphotransferase fusion protein and EMCV-IRES driven HCV polyprotein with cell culture adaptive mutations.
(§2) Replicon cells were trypsinised and counted. Cells were diluted to 100,000 cells/ml and 100 μl used to seed one opaque white 96-well plate (for the replicon assay) and one flat-bottomed clear plate (for the tox assay) for every five compounds to be tested for IC50. Wells G12 and H12 were left empty in the clear plate as the blank. Plates were then incubated at 37° C./5% CO2 for 24 h.
(§3) On the following day compound dilutions were prepared in medium at twice their desired final concentration in a clear round bottomed plate. All dilutions have a final DMSO concentration of 1%.
(§4) Controls and compounds were transferred from the dilution plates to the assay plates (containing the cells) at 100 μl/well in duplicate wells.
(§5) Exception: no compound was added to wells A1 and A2 of either plate and 100 μl of 1% DMSO was added to these instead. Plates were then incubated at 37° C./5% CO2 for 72 h.
The clear plate was stained with 100 μA 0.5% methylene blue in 50% ethanol at room temperature for 1 h, followed by solvation of the absorbed methylene blue in 100 μl per well of 1% lauroylsarcosine. Absorbance of the plate was measured on a microplate spectrophotometer (Molecular Devices) and the absorbance for each concentration of compound expressed as a proportion of the relative DMSO control. The TD50, the is concentration of drug required to reduce the total cell area by 50% relative to the DMSO controls, was calculated by plotting the absorbance at 620 nm after background substraction against drug concentration.

[3] = tested on: HCV replicon cells Huh 9B (genotype 1b); assay: 1b Replicon Assay (luciferase readout); assay type: cell-based; settings: Hepatitis C virus, Huh 9B replicon cells, 72 h, luciferase activity
Protocol: as §1
Cells were cultured at 37° C./5% CO2 and split twice a week. G418 at 0.5 mg/ml was added to the culture medium but not the assay medium.
The culture medium consisted of DMEM with […] glucose and Glutamax (Gibco 61965-026) supplemented with 1× non-essential amino acids (Invitrogen 11140-035), 0.5 mg/ml G418 (Invitrogen 10131-027) and 10% Australian foetal calf serum (Invitrogen 10099-141).
as §2, §3, §4, §5
At the end of the incubation time, the cells in the white plate were washed in PBS (100 μL per well) and dried by tapping before addition of 204 per well of lysis buffer (25 mM tris-phosphate, 8 mM MgCl2, 1 mM DTT, 1% Triton X-100, 15% glycerol; pH to 7.8 using KH2PO4 prior to Triton X-100 and glycerol addition). Aliquots of substrate (23.5 mM beetle luciferin (Promega E1603), 26 mM ATP (Sigma O-2060) in […] Tris buffer pH 7.8) were stored at −80° C. Prior to use, required amount of luciferin was thawed and diluted 1:50 in luciferase assay buffer (20 mM Tricine (Sigma T-0377), 1.07 mM magnesium carbonate hydroxide (Sigma M-5671), 0.1 mM EDTA (Sigma E-5134), 2.67 mM MgSO4(BDH 101514Y), 33.3 mM dithiothreitol (Sigma 150460) pH 7.8).
After 5-60 min incubation in lysis buffer at room temperature, a plate was inserted into the luminometer and 100 μl luciferase assay reagent was added by the injector of the luminometer. The signal was measured using a 1 second delay followed by a 4 second measurement programme. The IC50, the concentration of the drug required for reducing the replicon level by 50% in relation to the untreated cell control value, was calculated from the plot of the percentage reduction of the luciferase activity vs. drug concentration.

[4] = read-out: pIC50 1a Replicon (converted)
[5] = read-out: pIC50 1b Replicon (converted)

Compound | IC50 ([1]; read-out: HCV IC50 Elisa 1a) | IC50 [1, 4] | HCV TD50 Replicon [2] | IC50 ([3]; read-out: HCV IC50 1b Replicon) | IC50 [3, 5]
CC(C)(C)OC(=O)N[C@H](C(=O)N1CCOC[C@H]1c1ncc(-c2ccc(-c3ccc(C(=O)Nc4ccc(CN5CCS(=O)(=O)CC5)cc4)cc3)cc2)[nH]1)c1ccccc1 [Example 48, tert-Butyl N-[(1S)-2-[(3R)-3-[5-[4-[4-[[4-[(1,1-dioxo-1,4-thiazinan-4-yl)methyl]phenyl]carbamoyl]phenyl]phenyl]-1H-imidazol-2-yl]morpholin-4-yl]-2-oxo-1-phenyl-ethyl]carbamate] | 52.6 nM | 52.5 nM | >25 µM | 0.51 nM | 0.513 nM
COC(=O)N[C@H](C(=O)N1CCOC[C@H]1c1ncc(-c2ccc(-c3ccc(C(=O)Nc4ccc(CN5CCS(=O)(=O)CC5)cc4)cc3)cc2)[nH]1)C(C)C [Example 46, Methyl N-[(1S)-1-[(3R)-3-[5-[4-[4-[[4-[(1,1-dioxo-1,4-thiazinan-4-yl)methyl]phenyl]carbamoyl]phenyl]phenyl]-1H-imidazol-2-yl]morpholine-4-carbonyl]-2-methyl-propyl]carbamate] | 19.4 nM | 19.5 nM | >25 µM | 0.71 nM | 0.708 nM
CC(C)(C)OC(=O)N[C@H](C(=O)N1CCC[C@H]1c1ncc(-c2ccc(-c3ccc(C(=O)Nc4ccc(CN5CCS(=O)(=O)CC5)cc4)cc3)cc2)[nH]1)c1ccccc1 [Example 1, Tert-butyl N-[(1S)-2-[(2S)-2-[5-[4-[4-[[4-[(1,1-dioxo-1,4-thiazinan-4-yl)methyl]phenyl]carbamoyl]phenyl]phenyl]-1H-imidazol-2-yl]pyrrolidin-1-yl]-2-oxo-1-phenyl-ethyl]carbamate] | 41.4 nM | 41.7 nM | >25 µM | 0.01 nM | 0.0138 nM
CCN(CC)[C@@H](C(=O)N1CCC[C@H]1c1ncc(-c2ccc(-c3cccc(C(=O)Nc4ccc(CN5CCS(=O)(=O)CC5)cc4)c3)cc2)[nH]1)c1ccccc1 [Example 32, 3-[4-[2-[(2S)-1-[(2R)-2-(diethylamino)-2-phenyl-acetyl]pyrrolidin-2-yl]-1H-imidazol-5-yl]phenyl]-N-[4-[(1,1-dioxo-1,4-thiazinan-4-yl)methyl]phenyl]benzamide] | 1150 nM | 1150 nM | >25 µM | 0.21 nM | 0.209 nM
COC(=O)N[C@@H](C(=O)N1CCC[C@H]1c1ncc(-c2ccc(-c3cccc(C(=O)Nc4ccc(CN5CCS(=O)(=O)CC5)cc4)c3)cc2)[nH]1)c1ccccc1 [Example 31, Methyl N-[(1R)-2-[(2S)-2-[5-[4-[3-[[4-[(1,1-dioxo-1,4-thiazinan-4-yl)methyl]phenyl]carbamoyl]phenyl]phenyl]-1H-imidazol-2-yl]pyrrolidin-1-yl]-2-oxo-1-phenyl-ethyl]carbamate] | 2700 nM | 2690 nM | >25 µM | 0.91 nM | 0.912 nM
COC(=O)N[C@H](CO)C(=O)N1CCC[C@H]1c1ncc(-c2ccc(-c3ccc(C(=O)Nc4ccc(CN5CCS(=O)(=O)CC5)cc4)cc3)cc2)[nH]1 [Example 19, Methyl N-[(1R)-2-[(2S)-2-[5-[4-[4-[[4-[(1,1-dioxo-1,4-thiazinan-4-yl)methyl]phenyl]carbamoyl]phenyl]phenyl]-1H-imidazol-2-yl]pyrrolidin-1-yl]-1-(hydroxymethyl)-2-oxo-ethyl]carbamate] |  |  | 21.4 µM | 43.2 nM | 43.7 nM
COC(=O)N[C@@H](C(=O)N1CCC[C@@H]1c1ncc(-c2ccc(-c3ccc(C(=O)Nc4ccc(CN5CCS(=O)(=O)CC5)cc4)cc3)cc2)[nH]1)C(C)C [Example 27, methyl N-[(1R)-1-[(2R)-2-[5-[4-[4-[[4-[(1,1-dioxo-1,4-thiazinan-4-yl)methyl]phenyl]carbamoyl]phenyl]phenyl]-1H-imidazol-2-yl]pyrrolidine-1-carbonyl]-2-methyl-propyl]carbamate] |  |  | >25 µM | 15.3 nM | 15.1 nM
COC(=O)N[C@@H](C(=O)N1CCC[C@H]1c1ncc(-c2ccc(-c3ccc(C(=O)Nc4ccc(CN5CCS(=O)(=O)CC5)cc4)cc3)cc2)[nH]1)[C@H](C)O [Example 18, Methyl N-[(1R,2S)-1-[(2S)-2-[5-[4-[4-[[4-[(1,1-dioxo-1,4-thiazinan-4-yl)methyl]phenyl]carbamoyl]phenyl]phenyl]-1H-imidazol-2-yl]pyrrolidine-1-carbonyl]-2-hydroxy-propyl]carbamate] |  |  | >25 µM | 126 nM | 126 nM
CCN(CC)[C@@H](C(=O)N1CCC[C@H]1c1ncc(-c2cccc(-c3ccc(C(=O)Nc4ccc(CN5CCS(=O)(=O)CC5)cc4)cc3)c2)[nH]1)c1ccccc1 [Example 38, 4-[3-[2-[(2S)-1-[(2R)-2-(diethylamino)-2-phenyl-acetyl]pyrrolidin-2-yl]-1H-imidazol-5-yl]phenyl]-N-[4-[(1,1-dioxo-1,4-thiazinan-4-yl)methyl]phenyl]benzamide] | 314 nM | 316 nM |  | 2.87 nM | 2.88 nM

From patent publication US20100215618A1, “NOVEL COMPOUNDS - 644” (Arrow Therapeutics Limited, priority 2009, published 2010)
